Measured values as given in the supplement of paper PMC8882468.

What was measured:
Assay in all cases: CTG-3D luminescence at 96 h relative to day-0 seeding control (ratio to day 0); higher = more growth / less cytotoxicity; PDxO 3D drug screen, 96 h, CTG-3D normalised to day-0 seeding control.
HCI-011.E2 = system: HCI-011.E2 (organoid from an ER-positive breast cancer xenograft)
MDA-MB-231 = system: MDA-MB-231
HCI-008 = system: HCI-008 (organoid from a HER2-enriched breast cancer xenograft)
HCI-015 = system: HCI-015 (organoid from a triple-negative breast cancer xenograft)
HCI-017.E2 = system: HCI-017.E2 (organoid from an ER-positive breast cancer xenograft)
HCI-027 = system: HCI-027 (organoid from a triple-negative breast cancer xenograft)
HCI-005.E2 = system: HCI-005.E2 (organoid from a breast cancer xenograft with a HER2-positive history)

CS(=O)(=O)c1ccc(C(=O)Nc2ccc(Cl)c(-c3ccccn3)c2)c(Cl)c1 [vismodegib]
CTG-3D luminescence at 96 h
Conditions | 12.5 pM | 0.00025 µM | 0.005 µM | 0.1 µM | 1 µM | 10 µM | 100 µM | 625 fM
HCI-005.E2 | 1.47 | 1.38 | 1.47 | 1.57 | 1.45 | 1.3 | 0.318 | 1.47
HCI-011.E2 | 1.44 | 1.41 | 1.58 | 1.72 | 1.61 | 1.85 | 1.13 | 1.67
HCI-017.E2 | 1.53 | 1.93 | 2.01 | 1.8 | 1.65 | 1.67 | 0.824 | 1.88
MDA-MB-231 | 4.58 | 4.44 | 4.54 | 4.53 | 4.66 | 4.73 | 4 | 4.62

CTG-3D luminescence at 96 h
Conditions | 12.5 pM | 0.00025 µM | 0.005 µM | 0.1 µM | 1 µM | 10 µM | 100 µM | 625 fM
HCI-008, days in culture: 228 | 1.56 | 1.74 | 1.17 | 1.72 | 1.46 | 1.46 | 0.622 | 1.79
HCI-008, days in culture: 244 | 1.7 | 2.21 | 1.95 | 2.27 | 2.19 | 2.07 | 1.01 | 2.24
HCI-011.E2, days in culture: 74 | 2.31 | 1.93 | 1.98 | 2.31 | 2.12 | 3.48 | 1.49 | 2.36
HCI-015, days in culture: 172 | 2.23 | 2 | 1.97 | 1.34 | 1.97 | 1.25 | 0.214 | 3.01
HCI-015, days in culture: 191 | 2.65 | 1.16 | 1.77 | 1.1 | 1.7 | 1.15 | 0.207 | 1.54
HCI-015, days in culture: 218 | 1.6 | 1.48 | 1.63 | 1.61 | 1.73 | 1.61 | -0.148 | 2
HCI-017.E2, days in culture: 85 | 2.49 | 2.32 | 2.96 | 2.5 | 2.32 | 1.76 | 0.842 | 2.14
HCI-027, days in culture: 176 | 2.64 | 1.85 | 2.83 | 2.12 | 2.22 | 1.1 | -0.204 | 2.79
HCI-027, days in culture: 194 | 2.59 | 1.87 | 2.35 | 2.35 | 2.6 | 2.12 | -0.0508 | 2.34
HCI-027, days in culture: 201 | 3.03 | 3.03 | 3.44 | 2.6 | 3.36 | 1.74 | 0.019 | 3.54

C[C@H](NC(=O)CCC(F)(F)F)C(=O)N[C@@H]1C(=O)N(CCO)c2ncccc2-c2ccccc21 [crenigacestat]
CTG-3D luminescence at 96 h
Conditions | 12.5 pM | 0.00025 µM | 0.005 µM | 0.1 µM | 1 µM | 10 µM | 100 µM | 625 fM
HCI-005.E2 | 1.59 | 1.76 | 1.84 | 1.57 | 1.33 | 1.42 | 1.19 | 1.47
HCI-011.E2 | 1.52 | 2.05 | 1.54 | 1.98 | 1.59 | 1.95 | 1.98 | 1.91
HCI-017.E2 | 1.98 | 2.37 | 2.22 | 1.95 | 1.876 | 1.78 | 1.78 | 2.32
MDA-MB-231 | 4.47 | 4.32 | 4.4 | 4.27 | 4.51 | 4.53 | 4.69 | 4.5

CTG-3D luminescence at 96 h
Conditions | 12.5 pM | 0.00025 µM | 0.005 µM | 0.1 µM | 1 µM | 10 µM | 100 µM | 625 fM
HCI-008, days in culture: 228 | 1.8 | 1.66 | 1.56 | 1.47 | 1.73 | 1.7 | 1.65 | 1.9
HCI-008, days in culture: 244 | 1.23 | 1.65 | 1.55 | 1.79 | 1.38 | 1.57 | 1.38 | 1.79
HCI-011.E2, days in culture: 74 | 2.42 | 2.44 | 1.96 | 2.06 | 2.51 | 2.95 | 2.45 | 2.02
HCI-015, days in culture: 172 | 2.18 | 1.26 | 1.37 | 0.655 | 0.872 | 1.02 | 1.03 | 2.13
HCI-015, days in culture: 191 | 1.82 | 1.27 | 0.914 | 0.48 | 0.414 | 0.657 | 0.695 | 1.32
HCI-015, days in culture: 218 | 1.66 | 1.29 | 0.952 | 0.72 | 0.7 | 0.533 | 0.827 | 1.61
HCI-017.E2, days in culture: 85 | 2.43 | 2.96 | 2.49 | 2.05 | 1.89 | 1.57 | 2.02 | 3.08
HCI-027, days in culture: 176 | 1.81 | 1.25 | 0.916 | 0.198 | 0.179 | 0.173 | 0.335 | 1.6
HCI-027, days in culture: 194 | 1.84 | 1.19 | 0.958 | 0.251 | 0.276 | 0.312 | 0.344 | 1.57
HCI-027, days in culture: 201 | 2.13 | 1.77 | 1.26 | 0.249 | 0.206 | 0.258 | 0.259 | 1.97
